Results reported in ChEMBL document CHEMBL1201862, “PubChem BioAssay data set” (2004).
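Dose response: 5 concentrations. Exposure: 48 h. Format: 96-well plates. Endpoint: linear interpolation; highest concentration if not reached. Abbreviation: GI50, concentration required for 50% inhibition of growth.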 Calls of active or inactive are those of the source. No stated cut-off is given here; in the data, active = GI50 up to about 1.1 µM and inactive = higher.

How the values were obtained:
Experiment in all cases: NCI tumour cell line growth inhibition, 48 h
A498 = system: A498
CAKI-1 = system: CAKI-1
EKVX = system: EKVX
HCC 2998 = system: HCC 2998
HCT-116 = system: HCT-116
HOP-92 = system: HOP-92
LOX IMVI = system: LOX IMVI
MDA-N = system: MDA-N
NCI-H23 = system: NCI-H23
NCI-H522 = system: NCI-H522
NCI/ADR-RES = system: NCI/ADR-RES
OVCAR-4 = system: OVCAR-4
PC-3 = system: PC-3
SK-MEL-2 = system: SK-MEL-2
SN12C = system: SN12C
SNB-75 = system: SNB-75
TK-10 = system: TK-10
UACC-257 = system: UACC-257
MCF7 = system: MCF7

SMILES | GI50 (A498) | GI50 (CAKI-1) | GI50 (EKVX) | GI50 (HCC 2998) | GI50 (HCT-116) | GI50 (HOP-92) | GI50 (LOX IMVI) | GI50 (MDA-N) | GI50 (NCI-H23) | GI50 (NCI-H522) | GI50 (NCI/ADR-RES) | GI50 (OVCAR-4) | GI50 (PC-3) | GI50 (SK-MEL-2) | GI50 (SN12C) | GI50 (SNB-75) | GI50 (TK-10) | GI50 (UACC-257) | GI50 (MCF7)
c1ccc2sc(SCSc3nc4ccccc4s3)nc2c1 | > 100 µM (inactive) | > 100 µM (inactive) | 50.1 µM (inactive) | 75.9 µM (inactive) | 34.1 µM (inactive) | > 100 µM (inactive) | 47.2 µM (inactive) | 76.2 µM (inactive) | 70.3 µM (inactive) | 57.8 µM (inactive) | 94 µM (inactive) | > 100 µM (inactive) | 42.1 µM (inactive) | > 100 µM (inactive) | > 100 µM (inactive) | > 100 µM (inactive) | 66.4 µM (inactive) | 28.5 µM (inactive) | –
CC(=O)c1sc2c(c1OC(=O)c1ccc(Cl)cc1)c(=O)n(-c1ccccc1)c(=S)n2-c1ccccc1 | 1.08 µM (active) | 3.39 µM (inactive) | 11.4 µM (inactive) | 19.1 µM (inactive) | 9.08 µM (inactive) | 3.25 µM (inactive) | 2.32 µM (inactive) | – | 17.5 µM (inactive) | 1.53 µM (inactive) | 4.73 µM (inactive) | 22.3 µM (inactive) | 3.56 µM (inactive) | 1.27 µM (inactive) | 2.06 µM (inactive) | 2.99 µM (inactive) | 22.4 µM (inactive) | 5.19 µM (inactive) | 23.2 µM (inactive)
CCOC(=O)C1=C(C)NC(C)=C(C(=O)OCC)C1c1ccc(C)cc1 | 40.6 µM (inactive) | 48.6 µM (inactive) | 42.7 µM (inactive) | 73.6 µM (inactive) | 36.1 µM (inactive) | 13.1 µM (inactive) | 31.8 µM (inactive) | 31.8 µM (inactive) | 34.5 µM (inactive) | 32.4 µM (inactive) | – | 54.3 µM (inactive) | 24.5 µM (inactive) | 39.8 µM (inactive) | 22.1 µM (inactive) | 24.8 µM (inactive) | 66.8 µM (inactive) | 44.9 µM (inactive) | 11.2 µM (inactive)
COC1(OC)c2occc2C(=N)c2ccc(=O)oc21 | > 100 µM (inactive) | > 100 µM (inactive) | > 100 µM (inactive) | > 100 µM (inactive) | > 100 µM (inactive) | > 100 µM (inactive) | > 100 µM (inactive) | > 100 µM (inactive) | > 100 µM (inactive) | > 100 µM (inactive) | – | > 100 µM (inactive) | > 100 µM (inactive) | > 100 µM (inactive) | > 100 µM (inactive) | – | > 100 µM (inactive) | > 100 µM (inactive) | 81.8 µM (inactive)
Cn1c(=O)n2n(c1=O)[C@@H](c1ccccc1)[C@H]2c1ccccc1 | > 100 µM (inactive) | > 100 µM (inactive) | > 100 µM (inactive) | > 100 µM (inactive) | > 100 µM (inactive) | > 100 µM (inactive) | > 100 µM (inactive) | – | 65.6 µM (inactive) | – | > 100 µM (inactive) | > 100 µM (inactive) | > 100 µM (inactive) | > 100 µM (inactive) | > 100 µM (inactive) | 31 µM (inactive) | > 100 µM (inactive) | > 100 µM (inactive) | > 100 µM (inactive)
O=C(O)CNc1c2ccccc2nc2ccccc12 | – | > 100 µM (inactive) | > 100 µM (inactive) | > 100 µM (inactive) | 78.3 µM (inactive) | > 100 µM (inactive) | > 100 µM (inactive) | – | > 100 µM (inactive) | 49.8 µM (inactive) | – | 22.1 µM (inactive) | – | > 100 µM (inactive) | > 100 µM (inactive) | > 100 µM (inactive) | > 100 µM (inactive) | > 100 µM (inactive) | –
CC(C)(C)OC(=O)N1CCCC1=O | > 10 µM (inactive) | – | > 10 µM (inactive) | > 10 µM (inactive) | > 10 µM (inactive) | > 10 µM (inactive) | > 10 µM (inactive) | > 10 µM (inactive) | > 10 µM (inactive) | – | – | – | > 10 µM (inactive) | > 10 µM (inactive) | > 10 µM (inactive) | > 10 µM (inactive) | > 10 µM (inactive) | > 10 µM (inactive) | > 10 µM (inactive)
CCOP(=O)(OCC)/C(C#N)=C/c1cnc[nH]1 | > 100 µM (inactive) | > 100 µM (inactive) | > 100 µM (inactive) | > 100 µM (inactive) | > 100 µM (inactive) | > 100 µM (inactive) | > 100 µM (inactive) | – | > 100 µM (inactive) | > 100 µM (inactive) | > 100 µM (inactive) | > 100 µM (inactive) | > 100 µM (inactive) | > 100 µM (inactive) | > 100 µM (inactive) | > 100 µM (inactive) | > 100 µM (inactive) | > 100 µM (inactive) | > 100 µM (inactive)
CC(=O)OCC1OC(N2C(=O)C(=O)c3ccccc32)C(OC(C)=O)C(OC(C)=O)C1OC(C)=O (stereo unspecified) | > 100 µM (inactive) | > 100 µM (inactive) | > 100 µM (inactive) | > 100 µM (inactive) | – | > 100 µM (inactive) | > 100 µM (inactive) | – | > 100 µM (inactive) | > 100 µM (inactive) | – | > 100 µM (inactive) | – | > 100 µM (inactive) | > 100 µM (inactive) | > 100 µM (inactive) | > 100 µM (inactive) | > 100 µM (inactive) | –
COc1ccc(C2=Cc3nc2c(-c2ccccc2)c2ccc([nH]2)c(-c2ccccc2)c2nc(c(-c4ccccc4)c4ccc([nH]4)c3-c3ccccc3)C=C2)cc1 | > 100 µM (inactive) | > 100 µM (inactive) | > 100 µM (inactive) | > 100 µM (inactive) | > 100 µM (inactive) | 35.2 µM (inactive) | > 100 µM (inactive) | > 100 µM (inactive) | > 100 µM (inactive) | – | – | > 100 µM (inactive) | > 100 µM (inactive) | > 100 µM (inactive) | > 100 µM (inactive) | 25.2 µM (inactive) | > 100 µM (inactive) | – | > 100 µM (inactive)
O=C1c2ccccc2-n2c1nc1ccc([N+](=O)[O-])cc1c2=O | 5.62 µM (inactive) | 20.2 µM (inactive) | 93.1 µM (inactive) | > 100 µM (inactive) | 27.1 µM (inactive) | > 100 µM (inactive) | 22.5 µM (inactive) | – | 48.2 µM (inactive) | 82.6 µM (inactive) | > 100 µM (inactive) | > 10 µM (inactive) | > 100 µM (inactive) | – | 49.2 µM (inactive) | – | > 100 µM (inactive) | 89.7 µM (inactive) | 11.7 µM (inactive)
Cc1ccc(-c2cc(O)c3cc4c(cc3n2)OCO4)cc1 | 0.615 µM (active) | 3.52 µM (inactive) | 4.05 µM (inactive) | 1.42 µM (inactive) | 1.24 µM (inactive) | 1.87 µM (inactive) | 2.67 µM (inactive) | – | 0.916 µM (active) | 1.63 µM (inactive) | – | 8.97 µM (inactive) | – | 1.72 µM (inactive) | 2.56 µM (inactive) | 1.37 µM (inactive) | 7.66 µM (inactive) | > 100 µM (inactive) | –
